This experiment concerns T1, primary mouse cortical neurons.
T1 construct: primary cortical neurons, DIV 10
Nature of the experiment: cells. The arrangement: Protection from NMDA-induced (30 uM, 10 min) neuronal death; Hoechst nuclear morphology by automated microscopy. Particulars: Cortical neurone, 20 h, read-out: % inhibition, inhibition of NMDA-induced cell death (protection score), 30 min pre-treatment. The procedure, abridged: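 On DIV 10, primary mouse cortical neurons were given compound at 10 μM for 30 min at 37 °C, then 30 μM NMDA for 10 min, washed, and kept 20 h with compound. Dead cells were scored by nuclear morphology, and % protection was derived from survival relative to vehicle + NMDA and untreated controls.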

Each structure is given as a SMILES string. Where a name gives a salt, the structure may show the parent alone.

For orientation: inhibition means the change of the read-out against control, counted positive when it falls. On to `CCCC(CCC)C(=O)O` [Divalproex sodium], for which the inhibition at 10 µM was 3.49%.

With `CC(=O)O[C@@]12CO[C@@H]1C[C@H](O)[C@@]1(C)C(=O)[C@H](O)C3=C(C)[C@@H](OC(=O)[C@H](O)[C@@H](NC(=O)OC(C)(C)C)c4ccccc4)C[C@@](O)([C@@H](OC(=O)c4ccccc4)[C@H]21)C3(C)C` [Docetaxel (Taxotere)], the inhibition at 10 µM is -4.27%.

`O=c1[nH]c2ccccc2n1CCCN1CCC(n2c(=O)[nH]c3cc(Cl)ccc32)CC1` [Domperidone (Motilium)]: the inhibition at 10 µM is -9.12%.

With `COc1cc2c(cc1OC)C(=O)C(CC1CCN(Cc3ccccc3)CC1)C2` (stereo not shown) [Donepezil HCl (Aricept)], the inhibition at 10 µM was -8.98%.

Turning to `NCCc1ccc(O)c(O)c1` [Dopamine hydrochloride (Inotropin)], the inhibition at 10 µM was -1.44%.

With `C[C@@H](O)[C@H]1C(=O)N2C(C(=O)O)=C(S[C@@H]3CN[C@H](CNS(N)(=O)=O)C3)[C@H](C)[C@H]12` [Doripenem Hydrate], the inhibition at 10 µM is -0.0213%.

For the compound `CCN[C@H]1C[C@H](C)S(=O)(=O)c2sc(S(N)(=O)=O)cc21` [Dorzolamide HCL], the inhibition at 10 µM was 0.0606%.

On to `C[C@]12CCC(=O)C=C1[C@@H]1C[C@@H]1[C@H]1[C@@H]3[C@@H]4C[C@@H]4[C@@]4(CCC(=O)O4)[C@@]3(C)CC[C@@H]12` [Drospirenone], for which the inhibition at 10 µM was -0.385%.

Turning to `C[C@]12C=CC(=O)N[C@@H]1CC[C@@H]1[C@@H]2CC[C@]2(C)[C@@H](C(=O)Nc3cc(C(F)(F)F)ccc3C(F)(F)F)CC[C@@H]12` [Dutasteride], the inhibition at 10 µM is 113%.

On to `Cn1c(=O)c2c(ncn2CC(O)CO)n(C)c1=O` (stereo not shown) [Dyphylline (Dilor)], for which the inhibition at 10 µM was -0.361%.

As for `C[C@H]([C@H](O)CCC(C)(C)O)[C@H]1CC[C@@]2(O)C3=CC(=O)[C@@H]4C[C@@H](O)[C@@H](O)C[C@]4(C)[C@H]3CC[C@]12C` [Ecdysone], the inhibition at 10 µM stood at 0.187%.

Consider `Clc1ccc(COC(Cn2ccnc2)c2ccc(Cl)cc2Cl)cc1` (stereo not shown) [Econazole nitrate (Spectazole)], for which the inhibition at 10 µM was -2.25%.

`Cc1ccc(-n2[nH]c(C)c(N=Nc3cccc(-c4cccc(C(=O)O)c4)c3O)c2=O)cc1C` [Eltrombopag (SB-497115-GR)]: the inhibition at 10 µM is 93.9%.

In the case of `COc1cc2c(cc1Cc1cccc(Cl)c1F)c(=O)c(C(=O)O)cn2[C@H](CO)C(C)C` [Elvitegravir (GS-9137)], the inhibition at 10 µM was 89.3%.

On to `Cc1cc(O)c2c(c1)C(=O)c1cc(O)cc(O)c1C2=O` [Emodin], for which the inhibition at 10 µM is -4.08%.

In the case of `Nc1nc(=O)n([C@@H]2CS[C@H](CO)O2)cc1F` [Emtricitabine (Emtriva)], the inhibition at 10 µM is 14.4%.

For the compound `CCOC(=O)[C@H](CCc1ccccc1)N[C@@H](C)C(=O)N1CCC[C@H]1C(=O)O` [Enalapril maleate (Vasotec)], the inhibition at 10 µM is 54.5%.

For `C[C@H](N[C@@H](CCc1ccccc1)C(=O)O)C(=O)N1CCC[C@H]1C(=O)O` [Enalaprilat dihydrate], the inhibition at 10 µM is -4.34%.

On to `CC1(C)[C@@H](O)CC[C@]2(C)[C@H]3C(=O)C=C4[C@@H]5C[C@@](C)(C(=O)O)CC[C@]5(C)CC[C@@]4(C)[C@]3(C)CC[C@@H]12` [Enoxolone (Glycyrrhetin)], for which the inhibition at 10 µM was -0.00685%.

As to `C=C1[C@H](CO)[C@@H](O)C[C@@H]1n1cnc2c(=O)[nH]c(N)nc21` [Entecavir hydrate], the inhibition at 10 µM is 3.22%.

Consider `CNC[C@H](O)c1ccc(O)c(O)c1` [Epinephrine bitartrate (Adrenalinium)], for which the inhibition at 10 µM was -0.43%.

Take `COC(=O)[C@@H]1CC2=CC(=O)CC[C@]2(C)[C@@]23O[C@@H]2C[C@@]2(C)[C@@H](CC[C@@]24CCC(=O)O4)[C@H]13` [Eplerenone]: the inhibition at 10 µM is 6.59%.

Take `O=C(O)CSCC(=O)NC1CCSC1=O` (stereo not shown) [Erdosteine]: the inhibition at 10 µM was -0.838%.

For `CC(C)[C@@H](C)/C=C/[C@@H](C)[C@H]1CC[C@H]2C3=CC=C4C[C@@H](O)CC[C@]4(C)[C@H]3CC[C@]12C` [Ergosterol], the inhibition at 10 µM was -1.47%.

For the compound `C#Cc1cccc(Nc2ncnc3cc(OCCOC)c(OCCOC)cc23)c1` [Erlotinib HCl], the inhibition at 10 µM is 22.9%.

Take `CC[C@H]1OC(=O)[C@H](C)[C@@H](O[C@H]2C[C@@](C)(OC)[C@@H](O)[C@H](C)O2)[C@H](C)[C@@H](O[C@@H]2O[C@H](C)C[C@H](N(C)C)[C@H]2O)[C@](C)(O)C[C@@H](C)C(=O)[C@H](C)[C@@H](O)[C@]1(C)O` [Erythromycin (E-Mycin)]: the inhibition at 10 µM amounted to 29.4%.

On to `COc1ccc2[nH]c([S@@+]([O-])Cc3ncc(C)c(OC)c3C)nc2c1` [Esomeprazole sodium (Nexium)], for which the inhibition at 10 µM came to 21.3%.

Take `C[C@]12CC[C@@H]3c4ccc(O)cc4CC[C@H]3[C@@H]1CC[C@@H]2O` [Estradiol]: the inhibition at 10 µM amounted to 4.78%.

For `C[C@]12CC[C@@H]3c4ccc(O)cc4CC[C@H]3[C@@H]1CCC2=O` [Estrone], the inhibition at 10 µM was -2.18%.

Consider `C#C[C@]1(O)CC[C@H]2[C@@H]3CCc4cc(O)ccc4[C@H]3CC[C@@]21C` [Ethinyl estradiol], for which the inhibition at 10 µM was found to be 57.3%.

Regarding `CCc1cc(C(N)=S)ccn1` [Ethionamide], the inhibition at 10 µM was 27.7%.

With `CCc1cccc2c3c([nH]c12)C(CC)(CC(=O)O)OCC3` (stereo not shown) [Etodolac (Lodine)], the inhibition at 10 µM was found to be 9.68%.

For `COc1cc([C@@H]2c3cc4c(cc3[C@@H](O[C@@H]3O[C@@H]5CO[C@@H](C)O[C@H]5[C@H](O)[C@H]3O)[C@H]3COC(=O)[C@H]23)OCO4)cc(OC)c1O` [Etoposide (VP-16)], the inhibition at 10 µM was -11.8%.

For the compound `O=C(c1ccc(OCCN2CCCCC2)cc1)c1c(-c2ccc(O)cc2)sc2cc(O)ccc12` [Evista (Raloxifene Hydrochloride)], the inhibition at 10 µM is -19.3%.

In the case of `CN1c2ccccc2C(=O)N2CCc3c([nH]c4ccccc34)[C@H]21` [Evodiamine (Isoevodiamine)], the inhibition at 10 µM was found to be 0.0207%.

In the case of `C=C1C[C@@H]2[C@H](CC[C@]3(C)C(=O)CC[C@@H]23)[C@@]2(C)C=CC(=O)C=C12` [Exemestane], the inhibition at 10 µM was -1.67%.

Regarding `O=C1[C@H](CC[C@H](O)c2ccc(F)cc2)[C@@H](c2ccc(O)cc2)N1c1ccc(F)cc1` [Ezetimibe (Zetia)], the inhibition at 10 µM was determined as 21.4%.

As to `Cc1nc(-c2ccc(OCC(C)C)c(C#N)c2)sc1C(=O)O` [Febuxostat (Uloric)], the inhibition at 10 µM is -0.186%.

As to `CCOC(=O)C1=C(C)NC(C)=C(C(=O)OC)C1c1cccc(Cl)c1Cl` (stereo not shown) [Felodipine (Plendil)], the inhibition at 10 µM was -1.75%.

As to `COC(=O)Nc1nc2cc(Sc3ccccc3)ccc2[nH]1` [Fenbendazole (Panacur)], the inhibition at 10 µM was -8.52%.

Turning to `CC(C(=O)O)c1cccc(Oc2ccccc2)c1` (stereo not shown) [Fenoprofen calcium], the inhibition at 10 µM came out at 1.38%.

On to `CC(C)C(=O)Oc1ccc(CO)cc1[C@H](CCN(C(C)C)C(C)C)c1ccccc1` [Fesoterodine fumarate (Toviaz)], for which the inhibition at 10 µM was -0.933%.

For `CC(C)(C)NC(=O)[C@H]1CC[C@H]2[C@@H]3CC[C@H]4NC(=O)C=C[C@]4(C)[C@H]3CC[C@]12C` [Finasteride], the inhibition at 10 µM was determined as 59.6%.

As for `O=c1c(O)c(-c2ccc(O)c(O)c2)oc2cc(O)ccc12` [Fisetin (Fustel)], the inhibition at 10 µM was -2.5%.

In the case of `CN1CCN(c2c(F)cc3c(=O)c(C(=O)O)cn(CCF)c3c2F)CC1` [Fleroxacin (Quinodis)], the inhibition at 10 µM was -8.01%.

Turning to `O=c1[nH]c(=O)n([C@H]2C[C@H](O)[C@@H](CO)O2)cc1F` [Floxuridine], the inhibition at 10 µM was -8.07%.

Take `OC(Cn1cncn1)(Cn1cncn1)c1ccc(F)cc1F` [Fluconazole]: the inhibition at 10 µM was 6.24%.

As to `Nc1nc(=O)[nH]cc1F` [Flucytosine (Ancobon)], the inhibition at 10 µM was found to be 3.84%.

`Nc1nc(F)nc2c1ncn2[C@@H]1O[C@H](CO)[C@@H](O)[C@@H]1O` [Fludarabine (Fludara)]: the inhibition at 10 µM was determined as 16.2%.

On to `Nc1nc(F)nc2c1ncn2[C@@H]1O[C@H](COP(=O)(O)O)[C@@H](O)[C@@H]1O` [Fludarabine Phosphate (Fludara)], for which the inhibition at 10 µM was -10.8%.

As for `CCOC(=O)c1ncn2c1CN(C)C(=O)c1cc(F)ccc1-2` [Flumazenil], the inhibition at 10 µM is -13.8%.

In the case of `CC(=O)OCC(=O)[C@@]12OC(C)(C)O[C@@H]1C[C@H]1[C@@H]3C[C@H](F)C4=CC(=O)C=C[C@]4(C)[C@@]3(F)[C@@H](O)C[C@@]12C` [Fluocinonide (Vanos)], the inhibition at 10 µM was -1.57%.

`CNCCC(Oc1ccc(C(F)(F)F)cc1)c1ccccc1` (stereo not shown) [Fluoxetine HCl]: the inhibition at 10 µM was -11.1%.

Take `CC(C(=O)O)c1ccc(-c2ccccc2)c(F)c1` (stereo not shown) [Flurbiprofen (Ansaid)]: the inhibition at 10 µM was determined as 14%.

Take `COc1ccc(-c2coc3cc(O)ccc3c2=O)cc1` [Formononetin (Formononetol)]: the inhibition at 10 µM is -0.533%.

As for `N[C@@H](CSCCCO)C(=O)O` [Fudosteine], the inhibition at 10 µM came to 7.72%.

On to `C[C@]12CC[C@@H]3c4ccc(O)cc4C[C@@H](CCCCCCCCC[S+]([O-])CCCC(F)(F)C(F)(F)F)[C@H]3[C@@H]1CC[C@@H]2O` (stereo partly shown) [Fulvestrant (Faslodex)], for which the inhibition at 10 µM is -2.64%.

Consider `COc1cc(/C=C/C(=O)O)ccc1O` [Fumalic acid (Ferulic acid)], for which the inhibition at 10 µM was -0.686%.

Take `NS(=O)(=O)c1cc(C(=O)O)c(NCc2ccco2)cc1Cl` [Furosemide (Lasix)]: the inhibition at 10 µM was determined as 32.1%.

Regarding `CC[N+](CC)(CC)CCOc1cccc(OCC[N+](CC)(CC)CC)c1OCC[N+](CC)(CC)CC` [Gallamine triethiodide (Flaxedil)], the inhibition at 10 µM was -8.46%.

Take `CC(C)=CCC[C@]1(C)C=Cc2c(O)c3c(c(CC=C(C)C)c2O1)O[C@]12C(=C[C@@H]4C[C@H]1C(C)(C)O[C@@]2(C/C=C(/C)C(=O)O)C4=O)C3=O` [Gambogic Acid]: the inhibition at 10 µM is 14.8%.

Values taken from PMC7489219 (Molecular Brain, 2020).
